Data taken from ChEMBL document CHEMBL1135097, “New readily accessible peroxides with high anti-malarial potency” (Bioorg Med Chem Lett, 2002).

Assays:
KB 3-1 = assay: Compound was tested for cytotoxicity against human epidermoid carcinoma KB 3-1; type: functional, cell-based
Plasmodium falciparum = assay: Antimalarial activity against Plasmodium falciparum; type: functional, organism-based
[1] = (§1) Selective toxicity index between parasite and cells of host-animals, human epidermoid carcinoma KB 3-1; type: organism-based; details: KB 3-1 human epidermoid carcinoma cells
Homo sapiens = species: Homo sapiens; assay: as §1; type: organism-based

SMILES	IC50 (KB 3-1; Homo sapiens, KB 3-1)	IC50 (Plasmodium falciparum; Plasmodium falciparum)	selectivity ratio [1]	Ratio (Homo sapiens)	IC50 (KB 3-1; kb 3-1)	IC50 (Plasmodium falciparum)
COC(=O)CC1CCC(C)(OC)OO1 (centres undefined)	> 490 nM	> 2400 nM				
CCCCC[C@]1(OC)CC[C@@H](CC(=O)OC)OO1	53000 nM	150 nM	350			
CC/C=C/C=C/CC[C@]1(OC)CC[C@H]([C@@H](C)C(=O)OC)OO1	28000 nM	120 nM	230			
CCCCC[C@]1(OC)CC[C@H](CC(=O)OC)OO1	23000 nM	150 nM	150			
CCCCCCCCCC1(OC)CCC(CC(=O)OC)OO1 (centres undefined)	4400 nM	140 nM	31			
CCCCCCCCC[C@]1(OC)CC[C@@H](CC(=O)OC)OO1	4400 nM	170 nM	26			
CCCCCCCCC[C@]1(OC)CC[C@H](CC(=O)OC)OO1 (relative stereo)	2200 nM	260 nM	8			
CC/C=C/C=C/CC[C@]1(OC)CC[C@@H](C(C)C(=O)OC)OO1 (single isomer, unassigned)	21000 nM	150 nM	140			
CCCCCC1(OC)CCC(CC(=O)OC)OO1 (single isomer, unassigned; (+))				350	77000 nM	220 nM
CCCCCC1(OC)CCC(CC(=O)OC)OO1 (single isomer, unassigned; (-))				370	82000 nM	
CCCCCC1(OC)CCC(CC(=O)OC)OO1 (stereo in doubt; 5)	43000 nM	120 nM	360			
CCCCCCCCCCCCCCCC[C@@]1(OC)C=C[C@@H](CC(=O)OC)OO1 [CHONDRILLIN]	630 nM	> 240 nM	< 2.6			
